# Patent US11464802B2, “3-substituted piperidine compounds for Cbl-b inhibition, and use thereof” (Nurix Therapeutics, Inc., priority 2019, dated 2022)
# How the values were obtained:
# Cbl-b [1] = biological target: T1, Cbl-b (Homo sapiens (Human), UniProt Q13191); test: Cbl-b displacement assay (Cbl-b inhibition assay), Biological Example 8; assay type: binding; details: 0.125 nM Cbl-b final concentration (Low); Table 8-1; read-out: Cbl-b IC50 (Low)
# Experimental: (§1) Candidate compounds were evaluated for their ability to bind and inhibit Cbl-b, an E3 ubiquitin-protein ligase, as evidenced by their ability to displace a fluorophore-labeled probe bound to Cbl-b.
# (§2) The ability of candidate compounds to displace a known inhibitor and thereby inhibit Cbl-b activity was measured by monitoring the interaction of Cbl-b with a fluorophore-labeled probe in the presence of the candidate compound. A truncated variant of Cbl-b (UniProt number Q13191) containing residues 36-427 and an Avitag at its N-terminus was co-expressed with BirA biotin ligase and purified using a standard protocol (see Dou et al., Nature Structural and Molecular Biology 8: 982-987, 2013; Avidity LLC).
# (§3) Fluorescently-labeled inhibitor probe was synthesized and tagged with BODIPY FL. Cbl-b displacement assays were performed in a 384-well plate at room temperature in a 10 μl reaction volume by pre-incubating 0.5 nM Cbl-b or 0.125 nM Cbl-b (final concentration, indicated as “High” and “Low”, respectively) in an assay buffer containing 20 mM HEPES pH 7.5, 150 mM NaCl, 0.01% Triton X-100, 0.01% BSA and 0.5 mM TCEP in the presence of a candidate compound in 1% DMSO (final concentration) for 1 hour. After incubation in the presence of the candidate compound, the plate was incubated for an additional 1 hour in the presence of an approximate EC40 binding saturation consisting of 150 nM fluorescently-labeled inhibitor probe and 2 nM Streptavidin-Terbium (Cisbio) (final concentrations). Following the 1 hour incubation, the plates were read for TR-FRET signal at 520/620 nM using an Envision plate reader (Perkin Elmer).
# (§4) The resulting data for the Cbl-b activity assays were analyzed using standard methods to determine the IC50 values for the tested compounds.
# [2] = system: primary human total T-cells; test: Primary human total T-cell activation: CD25 surface staining, Biological Example 13; assay type: cell-based; details: 48 hours, fold change over baseline; for fold induction at 0.3 µM: inhibitor 0.3 μM; for fold induction at 0.3 µM / fold induction at 3 µM: Table 13-1; for fold induction at 1 µM: inhibitor 1 μM; for fold induction at 3 µM: inhibitor 3 μM
# [3] = system: primary human total T-cells; test: Primary human total T-cell activation: IL-2 secretion, Biological Example 9; assay type: cell-based; details: 48 hours, fold change over baseline; for fold induction at 0.3 µM: inhibitor 0.3 μM; for fold induction at 0.3 µM / fold induction at 3 µM: Table 9-1; for fold induction at 1 µM: inhibitor 1 μM; for fold induction at 3 µM: inhibitor 3 μM
# [4] = system: primary human total T-cells; test: Primary human total T-cell activation: IL-2 secretion, Biological Example 13; assay type: cell-based; details: 48 hours, fold change over baseline; for fold induction at 0.3 µM: inhibitor 0.3 μM; for fold induction at 0.3 µM / fold induction at 3 µM: Table 13-1; for fold induction at 1 µM: inhibitor 1 μM; for fold induction at 3 µM: inhibitor 3 μM
# [5] = system: primary human total T-cells; test: Primary human total T-cell activation: CD25 surface staining, Biological Example 9; assay type: cell-based; details: 48 hours, fold change over baseline; for fold induction at 0.3 µM: inhibitor 0.3 μM; for fold induction at 0.3 µM / fold induction at 3 µM: Table 9-1; for fold induction at 1 µM: inhibitor 1 μM; for fold induction at 3 µM: inhibitor 3 μM
# Cbl-b [6] = biological target: T1, Cbl-b; test: Cbl-b displacement assay (Cbl-b inhibition assay), Biological Example 12; assay type: binding; details: 0.125 nM Cbl-b final concentration (Low); Table 12-1; read-out: Cbl-b IC50 (Low)
# Experimental: as §1, §2, §3, §4
# [7] = anti-CD3/anti-CD28 co-stimulation
# [8] = anti-CD3/anti-CD28 co-stimulation, Table 13-1, read-out: CD25 staining CD3/CD28 1 μM
# [9] = anti-CD3 alone, Table 13-1, read-out: CD25 staining CD3 1 μM
# [10] = anti-CD3/anti-CD28 co-stimulation, Table 9-1, read-out: IL-2 secretion CD3/CD28 1 μM
# [11] = anti-CD3 alone, Table 9-1, read-out: IL-2 secretion CD3 1 μM
# [12] = anti-CD3/anti-CD28 co-stimulation, Table 13-1, read-out: IL-2 secretion CD3/CD28 1 μM
# [13] = anti-CD3 alone, Table 13-1, read-out: IL-2 secretion CD3 1 μM
# [14] = anti-CD3/anti-CD28 co-stimulation, Table 9-1, read-out: CD25 staining CD3/CD28 1 μM
# [15] = anti-CD3 alone, Table 9-1, read-out: CD25 staining CD3 1 μM
# T1 sequence (Q13191 36-427): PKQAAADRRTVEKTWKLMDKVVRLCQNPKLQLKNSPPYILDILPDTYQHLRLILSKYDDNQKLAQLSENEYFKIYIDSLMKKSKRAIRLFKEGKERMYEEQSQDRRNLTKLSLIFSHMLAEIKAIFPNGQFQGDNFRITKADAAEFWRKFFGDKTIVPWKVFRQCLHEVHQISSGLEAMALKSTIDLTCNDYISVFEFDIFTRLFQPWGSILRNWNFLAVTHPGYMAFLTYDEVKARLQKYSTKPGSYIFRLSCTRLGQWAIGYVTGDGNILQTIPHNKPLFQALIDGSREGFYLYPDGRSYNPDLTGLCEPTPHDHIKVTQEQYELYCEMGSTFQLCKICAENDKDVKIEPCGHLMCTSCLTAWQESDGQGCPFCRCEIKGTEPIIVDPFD
IC50 (Cbl-b [1]) [nM],IC50 (Cbl-b [6]) [nM],SMILES,"fold induction at 0.3 µM [2, 7]","fold induction at 1 µM [2, 8]","fold induction at 1 µM [2, 9]","fold induction at 0.3 µM [3, 7]","fold induction at 1 µM [3, 10]","fold induction at 1 µM [3, 11]","fold induction at 0.3 µM [4, 7]","fold induction at 1 µM [4, 12]","fold induction at 1 µM [4, 13]","fold induction at 0.3 µM [5, 7]","fold induction at 1 µM [5, 14]","fold induction at 1 µM [5, 15]",fold induction at 3 µM ([2]; anti-CD3 alone),fold induction at 3 µM ([3]; anti-CD3 alone),fold induction at 3 µM ([4]; anti-CD3 alone),fold induction at 3 µM ([5]; anti-CD3 alone)
> 5,> 5,Cn1cnnc1C(F)(F)[C@](C)(F)c1cccc(N2Cc3c(cc(CN4CC[C@H](F)C4)cc3C(F)(F)F)C2=O)c1 [Compound 57],1.25 to 1.39,> 1.39,> 1.14,< 10,10 to 15,< 0.33,< 10,11 to 15,< 0.33,1.25 to 1.39,> 1.39,> 1.14,,,,
1 to 5,1 to 5,C[C@@H](c1cc2c(c(C(F)(F)F)c1)CN(c1cccc(C3(Cc4nncn4C)COC3)c1)C2=O)N1CC[C@H](F)C1 [Compound 55],> 1.39,> 1.39,> 1.14,> 15,> 15,0.34 to 0.66,> 15,> 15,0.34 to 0.66,> 1.39,> 1.39,> 1.14,> 1.14,0.34 to 0.66,0.34 to 0.66,> 1.14
> 5,> 5,C[C@H](c1cc2c(c(C(F)(F)F)c1)CN(c1cccc(C3(Cc4nncn4C)COC3)c1)C2=O)N1CC[C@H](F)C1 [Compound 56],1.25 to 1.39,> 1.39,> 1.14,10 to 15,10 to 15,< 0.33,11 to 15,11 to 15,< 0.33,1.25 to 1.39,> 1.39,> 1.14,,,,
1 to 5,1 to 5,Cn1cnnc1CC1(c2cccc(N3Cc4c(cc(CN5CCC6(CC6)C5)cc4C(F)(F)F)C3=O)c2)COC1 [Compound 59],1.25 to 1.39,> 1.39,> 1.14,> 15,> 15,< 0.33,> 15,> 15,< 0.33,1.25 to 1.39,> 1.39,> 1.14,> 1.14,0.34 to 0.66,0.34 to 0.66,> 1.14
